The results in this text go back to publication PMC11477965, “Synthesis and Anti-Liver Fibrosis Research of Aspartic Acid Derivatives” (Molecules, 2024).

The test system of one data set is COL1A1 promoter. Description: COL1A1 promoter luciferase reporter inhibition assay in LX-2 cells.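 On all read-outs here: Anti-fibrotic screen: luciferase reporter driven by the COL1A1 promoter in human hepatic stellate LX-2 cells, compounds applied in complete medium in 96-well plates.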 It counts as cell-based, human. The following applies: for inhibition at 500 µM: Homo sapiens, read-out: Inhibitory Rate (%) of COL1A1 promotor; for relative fluorescence unit (RFU) of COL1A1 promotor: mean ± SD, n = 3, Control 124874.7 ± 10750.9.

Structures are written as SMILES. Where a SMILES comes first, the peptide text is derived from it. Bounds are passed on as bounds.

Method for COL1A1 promoter: A total of 32 target compounds, the lead compound L-Asp, and the positive control epigallocatechin gallate (EGCG), known for its anti-hepatic fibrotic activity [29], were tested for inhibitory effects on COL1A1 promoter activity at a concentration of 0.5 mM.
The LX-2 cells at 90% confluent were transfected with the plasmid of pGL4.17-COL1A1 promoter using Lipofectamine 2000 (Invitrogen, 11668019, Carlsbad, CA, USA) with Opti-MEM serum-free medium (Gibco, 1930104). After culturing for 6 h, the cells were replaced with a complete medium and seeded in 96-well plates for 24 h. The compound to be tested was prepared using a complete medium and added to the 96-well plate. After 24 h, Bright-Glo Luciferase Assay System (Promega, Madison, WI, USA) was used to detect the activity of COL1A1 promoter and the assaying inhibition rate.

In the case of `N[C@@H](CC(=O)OCc1cc(=O)n2ccsc2n1)C(=O)O` [Compound 37, (S)-2-amino-4-oxo-4-((5-oxo-5H-thiazolo [3,2-a]pyrimidin-7-yl)methoxy)butanoic acid], the inhibition at 500 µM with COL1A1 promoter (LX-2 cells, 0.5 mM, 24 h) stood at 8.46 ± 8.16%. Also, the “relative fluorescence unit (RFU) of COL1A1 promotor” value (from here on “relative fluorescence unit (RFU)”) in the data set with COL1A1 promoter (LX-2 cells) is given as 114307.8 ± 10191.8 RFU.
The molecule `N[C@@H](CC(=O)OCc1ccc(F)cc1)C(=O)O` [Compound 11b, (S)-2-amino-4-((4-fluorobenzyl)oxy)-4-oxobutanoic acid] showed a melting point of 227.6 to 230.2 °C. Also, the inhibition at 500 µM with COL1A1 promoter (LX-2 cells, 0.5 mM, 24 h) is less than 0%. In addition, in the data set on COL1A1 promoter (LX-2 cells), the “relative fluorescence unit (RFU)” value amounted to 130725.3 ± 8310.2 RFU.
In turn, `N[C@@H](CC(=O)O)C(=O)OCc1ccc([N+](=O)[O-])cc1` [Compound 11f, (S)-3-amino-4-((4-nitrobenzyl)oxy)-4-oxobutanoic acid] gave a melting point of 190.6 to 192.1 °C. For the same molecule, the inhibition at 500 µM in the data set on COL1A1 promoter (LX-2 cells, 0.5 mM, 24 h) was found to be 20.6 ± 14.3%. Also, the “relative fluorescence unit (RFU)” value in the data set on COL1A1 promoter (LX-2 cells) was determined as 99123.6 ± 17860.3 RFU.
On to `Cc1cc(=O)n2c(COC(=O)C[C@H](N)C(=O)O)csc2n1` [Compound 31, (S)-2-amino-4-((7-methyl-5-oxo-5H-thiazolo [3,2-a]pyrimidin-3-yl)methoxy)-4-oxobutanoic acid], for which the inhibition at 500 µM with COL1A1 promoter (LX-2 cells, 0.5 mM, 24 h) was 14.6 ± 3.11%. The “relative fluorescence unit (RFU)” value in the data set on COL1A1 promoter (LX-2 cells) is 106608.6 ± 3888.3 RFU.
The molecule `Cc1cc(=O)n2c(CNC(=O)c3cccc(F)c3F)csc2n1` [Compound 28a, 2,3-difluoro-N-((7-methyl-5-oxo-5H-thiazolo [3,2-a]pyrimidin-3-yl)methyl)benzamide] displayed a melting point of 218 to 220.2 °C. The inhibition at 500 µM in the data set with COL1A1 promoter (LX-2 cells, 0.5 mM, 24 h) is 43.9 ± 6.36%. In the data set with COL1A1 promoter (LX-2 cells), the “relative fluorescence unit (RFU)” value is 70040.5 ± 7951.7 RFU.
`Cc1cc(=O)n2c(CC(=O)N[C@H]3CCOC3=O)csc2n1` [Compound 34a, (S)-2-(7-methyl-5-oxo-5H-thiazolo [3,2-a]pyrimidin-3-yl)-N-(2-oxotetrahydrofuran-3-yl)acetamide]: the inhibition at 500 µM in the data set with COL1A1 promoter (LX-2 cells, 0.5 mM, 24 h) is 15.5 ± 16.6%. Further, the “relative fluorescence unit (RFU)” value in the data set with COL1A1 promoter (LX-2 cells) was 105579.0 ± 20740.0 RFU.
With `N[C@@H](CC(=O)Nc1nccs1)C(=O)O` [Compound 4b, N^4-(thiazol-2-yl)-L-asparagine], the melting point was in the range of 268.9 to 271.2 °C. Moreover, the inhibition at 500 µM in the data set with COL1A1 promoter (LX-2 cells, 0.5 mM, 24 h) amounted to 31.2 ± 14.3%. For the same molecule, the “relative fluorescence unit (RFU)” value with COL1A1 promoter (LX-2 cells) was 85934.6 ± 17864.6 RFU.
On to `Cc1cc(=O)n2c(CNC(=O)[C@H](N)CCO)csc2n1` [Compound 29, (R)-2-amino-4-hydroxy-N-((7-methyl-5-oxo-5H-thiazolo [3,2-a]pyrimidin-3-yl)methyl)butanamide], for which, in the data set with COL1A1 promoter (LX-2 cells, 0.5 mM, 24 h), the inhibition at 500 µM is 33.2 ± 33.3%. Moreover, the “relative fluorescence unit (RFU)” value in the data set with COL1A1 promoter (LX-2 cells) amounted to 83406.5 ± 41616.9 RFU.
Turning to `Cn1cc(O)c(=O)cc1CC(N)C(=O)O` (stereo not drawn) [Compound 20b, 2-amino-3-(5-hydroxy-1-methyl-4-oxo-1,4-dihydropyridin-2-yl)propanoic acid], the inhibition at 500 µM in the data set with COL1A1 promoter (LX-2 cells, 0.5 mM, 24 h) stood at 24 ± 6.38%. Also, in the data set on COL1A1 promoter (LX-2 cells), the “relative fluorescence unit (RFU)” value was 94881.8 ± 7963.9 RFU.
`NC(Cc1cc(=O)c(O)co1)C(=O)O` (stereo not drawn) [Compound 20a, 2-amino-3-(5-hydroxy-4-oxo-4H-pyran-2-yl)propanoic acid] showed a melting point of 217.1 to 219.8 °C. For the same molecule, the inhibition at 500 µM with COL1A1 promoter (LX-2 cells, 0.5 mM, 24 h) was found to be 17.9 ± 10.1%. Further, the “relative fluorescence unit (RFU)” value with COL1A1 promoter (LX-2 cells) came out at 102508.7 ± 12580.9 RFU.
Regarding `N[C@@H](CC(=O)OCc1cc(=O)c(O)co1)C(=O)O` [Compound 23a, (S)-2-amino-4-((5-hydroxy-4-oxo-4H-pyran-2-yl)methoxy)-4-oxobutanoic acid], the melting point lay within 156.3 to 158.7 °C. Further, the inhibition at 500 µM with COL1A1 promoter (LX-2 cells, 0.5 mM, 24 h) was determined as 27.9 ± 1.16%. Further, in the data set on COL1A1 promoter (LX-2 cells), the “relative fluorescence unit (RFU)” value is reported as 90057.5 ± 1452.6 RFU.
In the case of `N[C@@H](CC(=O)O)C(=O)NCCO` [Compound 6, (S)-3-amino-4-((2-hydroxyethyl)amino)-4-oxobutanoic acid], the inhibition at 500 µM in the data set with COL1A1 promoter (LX-2 cells, 0.5 mM, 24 h) is less than 0%. The “relative fluorescence unit (RFU)” value in the data set on COL1A1 promoter (LX-2 cells) was 128613.0 ± 57574.1 RFU.
Molecule `CN[C@@H](CCC(=O)O)C(=O)O` [Compound 1, Methyl-L-glutamic acid] showed a melting point of 156.1 to 157.5 °C. For the same molecule, the inhibition at 500 µM in the data set on COL1A1 promoter (LX-2 cells, 0.5 mM, 24 h) was less than 0%. Also, the “relative fluorescence unit (RFU)” value in the data set with COL1A1 promoter (LX-2 cells) is given as 143674.9 ± 32109.7 RFU.
`Cc1oc(COC(=O)C[C@H](N)C(=O)O)cc(=O)c1O` [Compound 23b, (S)-2-amino-4-((5-hydroxy-6-methyl-4-oxo-4H-pyran-2-yl)methoxy)-4-oxobutanoic acid]: the inhibition at 500 µM in the data set on COL1A1 promoter (LX-2 cells, 0.5 mM, 24 h) was found to be 34.6 ± 1.75%. In the data set with COL1A1 promoter (LX-2 cells), the “relative fluorescence unit (RFU)” value was found to be 81660.6 ± 2179.5 RFU.
`N[C@@H](CC(=O)O)C(=O)OCc1ccc(F)cc1` [Compound 11e, (S)-3-amino-4-((4-fluorobenzyl)oxy)-4-oxobutanoic acid]: the melting point fell in the range of 197.6 to 199.5 °C. In the data set with COL1A1 promoter (LX-2 cells, 0.5 mM, 24 h), the inhibition at 500 µM was found to be 27.9 ± 5.81%. Moreover, the “relative fluorescence unit (RFU)” value in the data set with COL1A1 promoter (LX-2 cells) turned out to be 89998.6 ± 7257.5 RFU.
Regarding `O=C(O)C[C@H](NC(=O)OCC1c2ccccc2-c2ccccc21)C(=O)NCCO` [Compound 5, (S)-3-((((9H-fluoren-9-yl)methoxy)carbonyl)amino)-4-((2-hydroxyethyl)amino)-4-oxobutanoic acid], the melting point is 113.6 to 115.1 °C. Besides, in the data set with COL1A1 promoter (LX-2 cells, 0.5 mM, 24 h), the inhibition at 500 µM was 24 ± 15.4%. In the data set with COL1A1 promoter (LX-2 cells), the “relative fluorescence unit (RFU)” value amounted to 94919.5 ± 19273.7 RFU.
In the case of `CCNC(=O)C[C@H](N)C(=O)O` [Compound 4d, N^4-ethyl-L-asparagine], the inhibition at 500 µM in the data set on COL1A1 promoter (LX-2 cells, 0.5 mM, 24 h) is 33.1 ± 19%.
As for `COC(=O)[C@H]1C[C@H](Oc2cc(C)nn3c(-c4ccc(OC)c(OC)c4)cnc23)CN1` [Compound 43, Methyl (2R,4S)-4-((3-(3,4-dimethoxyphenyl)-6-methylimidazo [1,2-b]pyridazin-8-yl)oxy)pyrrolidine-2-carboxylate], the melting point lay within 127.2 to 129.6 °C. Also, the “fold decrease in COL1A1 promoter inhibitory activity relative to 45” value in the data set with COL1A1 promoter (0.5 mM, versus 45) came to 1.8 fold. For the same molecule, the inhibition at 500 µM with COL1A1 promoter (LX-2 cells, 0.5 mM, 24 h) turned out to be 38.2 ± 3.28%. Besides, the “relative fluorescence unit (RFU)” value in the data set on COL1A1 promoter (LX-2 cells) was determined as 77132.5 ± 4101.8 RFU.
In the case of `NC(=O)C[C@H](N)C(=O)N[C@@H](CC(=O)O)C(=O)O` [Compound 8b, L-asparaginyl-L-aspartic acid] (H-Asn-Asp-OH), the melting point lay in the range of 195.3 to 198.6 °C. In addition, the inhibition at 500 µM in the data set with COL1A1 promoter (LX-2 cells, 0.5 mM, 24 h) was 23.8 ± 4.57%. Besides, the “relative fluorescence unit (RFU)” value in the data set on COL1A1 promoter (LX-2 cells) turned out to be 95132.4 ± 5710.5 RFU.
Consider `N[C@@H](CC(=O)OCc1ccc([N+](=O)[O-])cc1)C(=O)O` [Compound 11c, (S)-2-amino-4-((4-nitrobenzyl)oxy)-4-oxobutanoic acid], for which the melting point lay within 207.2 to 209.5 °C. Further, the inhibition at 500 µM with COL1A1 promoter (LX-2 cells, 0.5 mM, 24 h) was less than 0%. The “relative fluorescence unit (RFU)” value with COL1A1 promoter (LX-2 cells) stood at 158140.3 ± 50740.1 RFU.
For `CNC(=O)C[C@H](N)C(=O)O` [Compound 4c, N^4-methyl-L-asparagine], the inhibition at 500 µM in the data set on COL1A1 promoter (LX-2 cells, 0.5 mM, 24 h) is 35.5 ± 18.1%. In the data set on COL1A1 promoter (LX-2 cells), the “relative fluorescence unit (RFU)” value turned out to be 80485.7 ± 22615.1 RFU.
On to `N[C@@H](CC(=O)Nc1nc(CO)cs1)C(=O)O` [Compound 4a, N^4-(4-(hydroxymethyl)thiazol-2-yl)-L-asparagine], for which the melting point was 257.8 to 259.4 °C. Besides, in the data set with COL1A1 promoter (LX-2 cells, 0.5 mM, 24 h), the inhibition at 500 µM was found to be 14.9 ± 8.45%. For the same molecule, the “relative fluorescence unit (RFU)” value with COL1A1 promoter (LX-2 cells) stood at 106237.2 ± 10544.5 RFU.
Regarding `Cc1ccc(COC(=O)[C@@H](N)CC(=O)O)cc1` [Compound 11d, (S)-3-amino-4-((4-methylbenzyl)oxy)-4-oxobutanoic acid], the melting point was in the range of 205.1 to 207.3 °C. Further, the inhibition at 500 µM in the data set on COL1A1 promoter (LX-2 cells, 0.5 mM, 24 h) turned out to be 19.9 ± 4.99%. For the same molecule, the “relative fluorescence unit (RFU)” value in the data set with COL1A1 promoter (LX-2 cells) came to 100087.5 ± 6229.2 RFU.
For `Cc1ccc(COC(=O)C[C@H](N)C(=O)O)cc1` [Compound 11a, (S)-2-amino-4-((4-methylbenzyl)oxy)-4-oxobutanoic acid], the melting point is 228.1 to 229.6 °C. For the same molecule, the inhibition at 500 µM in the data set on COL1A1 promoter (LX-2 cells, 0.5 mM, 24 h) turned out to be 11.4 ± 18.5%. In addition, the “relative fluorescence unit (RFU)” value with COL1A1 promoter (LX-2 cells) amounted to 110620.0 ± 23148.4 RFU.
Turning to `Cc1cc(=O)n2c(CNc3ccccn3)csc2n1` [Compound 32a, 7-methyl-3-((pyridin-2-ylamino)methyl)-5H-thiazolo [3,2-a]pyrimidin-5-one], the inhibition at 500 µM with COL1A1 promoter (LX-2 cells, 0.5 mM, 24 h) was 47.7 ± 4.81%. Also, the “relative fluorescence unit (RFU)” value with COL1A1 promoter (LX-2 cells) was 65321.0 ± 6005.7 RFU.
Take `Cc1cc(=O)n2c(CC(=O)N[C@@H](CC(=O)O)C(=O)O)csc2n1` [Compound 35, (2-(7-methyl-5-oxo-5H-thiazolo [3,2-a]pyrimidin-3-yl)acetyl)-L-aspartic acid]: the melting point is 253.1 to 256.8 °C. Besides, the inhibition at 500 µM in the data set with COL1A1 promoter (LX-2 cells, 0.5 mM, 24 h) is less than 0%. Also, in the data set on COL1A1 promoter (LX-2 cells), the “relative fluorescence unit (RFU)” value came out at 161478.3 ± 67708.9 RFU.
For `O=C(O[C@@H]1Cc2c(O)cc(O)cc2O[C@@H]1c1cc(O)c(O)c(O)c1)c1cc(O)c(O)c(O)c1` [EGCG, epigallocatechin gallate, reference compound], the “Inhibitory Rate (%) of COL1A1 promotor” value in the data set with COL1A1 promoter (LX-2 cells, 0.5 mM, 24 h) is given as 36.46 ± 4.64%. Further, the “relative fluorescence unit (RFU)” value in the data set with COL1A1 promoter (LX-2 cells) is recorded as 79340.1 ± 5808.7 RFU.
As to `Cc1cc(=O)n2c(CN[C@@H](CC(=O)O)C(=O)O)csc2n1` [Compound 33, ((7-methyl-5-oxo-5H-thiazolo [3,2-a]pyrimidin-3-yl)methyl)-L-aspartic acid], the inhibition at 500 µM with COL1A1 promoter (LX-2 cells, 0.5 mM, 24 h) was found to be 6.39 ± 7.06%. Moreover, the “relative fluorescence unit (RFU)” value with COL1A1 promoter (LX-2 cells) is on record as 116893.2 ± 8812.8 RFU.

By melting point is commonly meant the temperature, or range, at which the solid turns liquid.
